For test [1], the system named is primary human T-cells.
For test [2], the system named is primary human T-cells. The test can be described thus: Proliferation assay after 5 days (CellTiter-Glo, CD3 stimulation; PBS counter screen). The following applies: Homo sapiens, T-cell, 120 h, CD3 stimulation; for Emax: 5 days, normalized to reference compound A1 as stimulator control = 100%, DMSO neutral control, read-out: Emax proliferation (% activation); for EC50: primary human T-cells, CellTiter-Glo after 5 days, EC50 of fitted sigmoidal curve, read-out: Tcell Proliferation CD3 EC50. It counts as cell-based. The method, boiled down:
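Primary human T-cells, with or without CD3 stimulation, exposed to compounds for 5 days; cell number read as ATP by CellTiter-Glo 2.0 luminescence after 45 min equilibration and 15 min reagent incubation at room temperature. Compounds activating unstimulated cells or reducing viability were flagged.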
A general note: Cellular ATP, detected with luciferase, serves as a proxy for viable cell number.

The structures appear in SMILES notation. Read-outs that look alike come from different tables or passages of the source.

`N[C@H]1CS(=O)(=O)c2cc(F)c(-c3noc(C(N)(C4CCOCC4)C(F)(F)F)n3)cc2N(Cc2ccc(Cl)cc2)C1=O` (stereo partly drawn) [Example 294, (3R)-3-amino-7-[5-(1-amino-2,2,2-trifluoro-1-tetrahydropyran-4-yl-ethyl)-1,2,4-oxadiazol-3-yl]-5-[(4-chlorophenyl)methyl]-8-fluoro-1,1-dioxo-2,3-dihydro-1λ^6,5-benzothiazepin-4-one] registered an EC50 in test [1] of 0.373 µM. Besides, in test [2], the Emax amounted to 143% and the EC50 was 0.261 µM.

Consider `CC(F)(F)CNC(=O)c1nc(-c2cc3c(cc2F)S(=O)(=O)C[C@H](N)C(=O)N3Cc2ccc(Cl)cc2)no1` [Example 295, 3-[(3R)-3-amino-5-[(4-chlorophenyl)methyl]-8-fluoro-1,1,4-trioxo-2,3-dihydro-1λ^6,5-benzothiazepin-7-yl]-N-(2,2-difluoropropyl)-1,2,4-oxadiazole-5-carboxamide], for which the EC50 in test [1] worked out at 0.885 µM. Besides, in test [2], the Emax worked out at 97% and the EC50 amounted to 1.39 µM.

In test [1], `N[C@H]1CS(=O)(=O)c2cc(F)c(-c3noc(C(F)C(F)(F)F)n3)cc2N(Cc2ccc(Cl)cc2)C1=O` (stereo partly drawn) [Example 296, (3R)-3-amino-5-[(4-chlorophenyl)methyl]-8-fluoro-1,1-dioxo-7-[5-(1,2,2,2-tetrafluoroethyl)-1,2,4-oxadiazol-3-yl]-2,3-dihydro-1λ^6,5-benzothiazepin-4-one] came in with an EC50 of 0.71 µM. In addition, in test [2], the Emax is 66% and the EC50 turned out to be 0.687 µM.

For `CN(C)C(=O)c1nc(-c2cc3c(cc2F)S(=O)(=O)C[C@H](N)C(=O)N3Cc2ccc(Cl)cc2)no1` [Example 299, 3-[(3R)-3-amino-5-[(4-chlorophenyl)methyl]-8-fluoro-1,1,4-trioxo-2,3-dihydro-1λ^6,5-benzothiazepin-7-yl]-N,N-dimethyl-1,2,4-oxadiazole-5-carboxamide], in test [1], the EC50 was 2.5 µM. Moreover, in test [2], the Emax was found to be 111% and the EC50 was 5.01 µM.

As to `CC(O)(CNC(=O)c1nc(-c2cc3c(cc2F)S(=O)(=O)C[C@H](N)C(=O)N3Cc2ccc(Cl)cc2)no1)C(F)(F)F` (stereo partly drawn) [Example 301, 3-[(3R)-3-amino-5-[(4-chlorophenyl)methyl]-8-fluoro-1,1,4-trioxo-2,3-dihydro-1λ^6,5-benzothiazepin-7-yl]-N-(3,3,3-trifluoro-2-hydroxy-2-methyl-propyl)-1,2,4-oxadiazole-5-carboxamide], the EC50 in test [1] worked out at 6.14 µM. Besides, in test [2], the Emax is 93% and the EC50 was found to be 2.44 µM.

For the compound `CC1(C)CNCC(c2nc(-c3cc4c(cc3F)S(=O)(=O)C[C@H](N)C(=O)N4Cc3ccc(Cl)cc3)no2)C1` (stereo partly drawn) [Example 302, (3R)-3-amino-5-[(4-chlorophenyl)methyl]-7-[5-(5,5-dimethyl-3-piperidyl)-1,2,4-oxadiazol-3-yl]-8-fluoro-1,1-dioxo-2,3-dihydro-1λ^6,5-benzothiazepin-4-one], the EC50 in test [1] is greater than 10 µM. In addition, in test [2], the Emax stood at 76% and the EC50 is 0.991 µM.

Take `CNC(=O)N1CCC(C)(c2nc(-c3cc4c(cc3F)S(=O)(=O)C[C@H](N)C(=O)N4Cc3ccc(Cl)cc3)no2)CC1` [Example 304, 4-[3-[(3R)-3-amino-5-[(4-chlorophenyl)methyl]-8-fluoro-1,1,4-trioxo-2,3-dihydro-1λ^6,5-benzothiazepin-7-yl]-1,2,4-oxadiazol-5-yl]-N,4-dimethyl-piperidine-1-carboxamide]: the EC50 in test [1] amounted to 8.14 µM. For the same compound, in test [2], the Emax stood at 61% and the EC50 was found to be 7.49 µM.

As for `CC1(c2nc(-c3cc4c(cc3F)S(=O)(=O)C[C@H](N)C(=O)N4Cc3ccc(Cl)cc3)no2)CCN(C(=O)N2CCCC2)CC1` [Example 305, (3R)-3-amino-5-[(4-chlorophenyl)methyl]-8-fluoro-7-[5-[4-methyl-1-(pyrrolidine-1-carbonyl)-4-piperidyl]-1,2,4-oxadiazol-3-yl]-1,1-dioxo-2,3-dihydro-1λ^6,5-benzothiazepin-4-one], the EC50 in test [1] was 1.81 µM. In test [2], the Emax worked out at 84% and the EC50 came out at 0.72 µM.

Consider `CCN1CCC(C)(c2nc(-c3cc4c(cc3F)S(=O)(=O)C[C@H](N)C(=O)N4Cc3ccc(Cl)cc3)no2)CC1` [Example 306, (3R)-3-amino-5-[(4-chlorophenyl)methyl]-7-[5-(1-ethyl-4-methyl-4-piperidyl)-1,2,4-oxadiazol-3-yl]-8-fluoro-1,1-dioxo-2,3-dihydro-1λ^6,5-benzothiazepin-4-one], for which, in test [1], the EC50 was found to be 0.571 µM. Moreover, in test [2], the Emax is 79% and the EC50 stood at 3.48 µM.

In test [1], `CC1(c2nc(-c3cc4c(cc3F)[S+]([O-])C[C@H](N)C(=O)N4Cc3ccc(Cl)cc3)no2)CC[N+]([O-])(CC(F)(F)F)CC1` (stereo partly drawn) [Example 308, (3R)-3-amino-5-[(4-chlorophenyl)methyl]-8-fluoro-7-[5-[4-methyl-1-oxido-1-(2,2,2-trifluoroethyl)piperidin-1-ium-4-yl]-1,2,4-oxadiazol-3-yl]-1-oxo-2,3-dihydro-1λ^4,5-benzothiazepin-4-one] yielded an EC50 greater than 10 µM. In test [2], the Emax stood at 61% and the EC50 amounted to 7.63 µM.

As to `CC1(c2nc(-c3cc4c(cc3F)S(=O)(=O)C[C@H](N)C(=O)N4Cc3ccc(Cl)cc3)no2)CCN(CC(F)(F)F)CC1` [Example 309, (3R)-3-amino-5-[(4-chlorophenyl)methyl]-8-fluoro-7-[5-[4-methyl-1-(2,2,2-trifluoroethyl)-4-piperidyl]-1,2,4-oxadiazol-3-yl]-1,1-dioxo-2,3-dihydro-1λ^6,5-benzothiazepin-4-one], the EC50 in test [1] was found to be 0.443 µM. Further, the Emax in test [2] is 202%.

Turning to `Cc1ccncc1-c1nc(-c2cc3c(cc2F)S(=O)(=O)C[C@H](N)C(=O)N3Cc2ccc(Cl)cc2)no1` [Example 310, (3R)-3-amino-5-[(4-chlorophenyl)methyl]-8-fluoro-7-[5-(4-methyl-3-pyridyl)-1,2,4-oxadiazol-3-yl]-1,1-dioxo-2,3-dihydro-1λ^6,5-benzothiazepin-4-one], the EC50 in test [1] came out at 3.24 µM; in test [2], 2.71 µM. For the same compound, the Emax in test [2] is 90%.

As to `Cc1nc(F)ccc1-c1nc(-c2cc3c(cc2F)S(=O)(=O)C[C@H](N)C(=O)N3Cc2ccc(Cl)cc2)no1` [Example 312, (3R)-3-amino-5-[(4-chlorophenyl)methyl]-8-fluoro-7-[5-(6-fluoro-2-methyl-3-pyridyl)-1,2,4-oxadiazol-3-yl]-1,1-dioxo-2,3-dihydro-1λ^6,5-benzothiazepin-4-one], in test [1], the EC50 turned out to be 0.226 µM. In test [2], the Emax amounted to 163% and the EC50 was 0.0806 µM.

Turning to `CCOC(=O)N1CC2CC(c3nc(-c4cc5c(cc4F)S(=O)(=O)C[C@H](N)C(=O)N5Cc4ccc(Cl)cc4)no3)(C2)C1` [Example 315, ethyl 1-[3-[(3R)-3-amino-5-[(4-chlorophenyl)methyl]-8-fluoro-1,1,4-trioxo-2,3-dihydro-1λ^6,5-benzothiazepin-7-yl]-1,2,4-oxadiazol-5-yl]-3-azabicyclo[3.1.1]heptane-3-carboxylate], the EC50 in test [1] turned out to be 1.03 µM. Besides, the Emax in test [2] was 131%.

Compound `CC(C)OC(=O)N1CC2CC(c3nc(-c4cc5c(cc4F)S(=O)(=O)C[C@H](N)C(=O)N5Cc4ccc(Cl)cc4)no3)(C2)C1` [Example 316, isopropyl 1-[3-[(3R)-3-amino-5-[(4-chlorophenyl)methyl]-8-fluoro-1,1,4-trioxo-2,3-dihydro-1λ^6,5-benzothiazepin-7-yl]-1,2,4-oxadiazol-5-yl]-3-azabicyclo[3.1.1]heptane-3-carboxylate] gave an EC50 in test [1] of 0.679 µM. Also, in test [2], the Emax was 112%.

On to `COC(=O)N1CC2CC(c3nc(-c4cc5c(cc4F)S(=O)(=O)C[C@H](N)C(=O)N5Cc4ccc(Cl)cc4)no3)(C2)C1` [Example 317, methyl 1-[3-[(3R)-3-amino-5-[(4-chlorophenyl)methyl]-8-fluoro-1,1,4-trioxo-2,3-dihydro-1λ^6,5-benzothiazepin-7-yl]-1,2,4-oxadiazol-5-yl]-3-azabicyclo[3.1.1]heptane-3-carboxylate], for which the EC50 in test [1] came out at 2.23 µM. Moreover, in test [2], the Emax is 142%.

As for `N[C@H]1CS(=O)(=O)c2cc(F)c(-c3noc(C4(C(F)(F)F)CC4)n3)cc2N(Cc2ccc(Cl)cc2)C1=O` [Example 318, (3R)-3-amino-5-[(4-chlorophenyl)methyl]-8-fluoro-1,1-dioxo-7-[5-[1-(trifluoromethyl)cyclopropyl]-1,2,4-oxadiazol-3-yl]-2,3-dihydro-1λ^6,5-benzothiazepin-4-one], the EC50 in test [1] was found to be 0.55 µM. Moreover, in test [2], the Emax is 140% and the EC50 came out at 0.255 µM.

In test [1], `CC(O)(c1nc(-c2cc3c(cc2F)S(=O)(=O)C[C@H](N)C(=O)N3Cc2ccc(Cl)cc2)no1)C(F)(F)F` (stereo partly drawn) [Example 319, (3R)-3-amino-5-[(4-chlorophenyl)methyl]-8-fluoro-1,1-dioxo-7-[5-(2,2,2-trifluoro-1-hydroxy-1-methyl-ethyl)-1,2,4-oxadiazol-3-yl]-2,3-dihydro-1λ^6,5-benzothiazepin-4-one] gave an EC50 of 0.458 µM. In addition, in test [2], the Emax turned out to be 113% and the EC50 amounted to 0.243 µM.

With `N[C@H]1CS(=O)(=O)c2cc(F)c(-c3noc(C4(CO)CCCO4)n3)cc2N(Cc2ccc(Cl)cc2)C1=O` (stereo partly drawn) [Example 320, (3R)-3-amino-5-[(4-chlorophenyl)methyl]-8-fluoro-7-[5-[2-(hydroxymethyl)tetrahydrofuran-2-yl]-1,2,4-oxadiazol-3-yl]-1,1-dioxo-2,3-dihydro-1λ^6,5-benzothiazepin-4-one], the EC50 in test [1] is 3.21 µM. Further, in test [2], the Emax was 107% and the EC50 is 3.06 µM.

Values taken from patent publication US20240368150A1 (Hoffmann-La Roche Inc., priority 2021, published 2024).
